According to US6737383B1, “Herbicidal oxadiazolidines” (priority 1999, dated 2004):

Legend:
[1] = tested on: sugar beet; test: Test B pre/postemergence sugar beet; type: in vivo, Beta vulgaris
Procedure, shortened: (§1)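 Response is a visual 0-to-10 score relative to untreated plants, where 0 means no effect and 10 means complete control, taken twelve to sixteen days after application. Treatments went onto soil at planting and onto foliage of 1- to 4-leaf plants, using a surfactant-containing non-phytotoxic solvent.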

[2] = tested on: crabgrass; test: Test B pre/postemergence crabgrass; type: in vivo, Digitaria sanguinalis
Procedure, shortened: as §1

[3] = tested on: surinam grass; test: Test B pre/postemergence surinam grass; type: in vivo, Brachiaria decumbens
Procedure, shortened: as §1

[4] = tested on: corn; test: Test B pre/postemergence corn; type: in vivo, Zea mays
Procedure, shortened: as §1

[5] = tested on: purple nutsedge; test: Test B pre/postemergence purple nutsedge; type: in vivo, Cyperus rotundus
Procedure, shortened: as §1

[6] = tested on: wild oat; test: Test B pre/postemergence wild oat; type: in vivo, Avena fatua
Procedure, shortened: as §1

[7] = tested on: cocklebur; test: Test B pre/postemergence cocklebur; type: in vivo, Xanthium strumarium
Procedure, shortened: as §1

[8] = tested on: rape; test: Test B pre/postemergence rape; type: in vivo, Brassica napus
Procedure, shortened: as §1

[9] = tested on: soybean; test: Test B pre/postemergence soybean; type: in vivo, Glycine max
Procedure, shortened: as §1

[10] = tested on: giant foxtail; test: Test B pre/postemergence giant foxtail; type: in vivo, Setaria faberii
Procedure, shortened: as §1

[11] = tested on: pigweed; test: Test B pre/postemergence pigweed; type: in vivo, Amaranthus retroflexus
Procedure, shortened: as §1

[12] = tested on: bedstraw; test: Test B pre/postemergence bedstraw; type: in vivo, Galium aparine
Procedure, shortened: as §1

[13] = tested on: blackgrass; test: Test B pre/postemergence blackgrass; type: in vivo, Alopecurus myosuroides
Procedure, shortened: as §1

[14] = tested on: wheat; test: Test B pre/postemergence wheat; type: in vivo, Triticum aestivum
Procedure, shortened: as §1

[15] = tested on: morningglory; test: Test B pre/postemergence morningglory; type: in vivo, Ipomoea hederacea
Procedure, shortened: as §1

[16] = tested on: velvetleaf; test: Test B pre/postemergence velvetleaf; type: in vivo, Abutilon theophrasti
Procedure, shortened: as §1

[17] = Postemergence, Rate 62 g/ha, scale of 0 to 10, 0 is no effect, 10 is complete control
[18] = Postemergence, Rate 125 g/ha, scale 0 to 10, 0 is no effect, 10 is complete control
[19] = Postemergence, Rate 500 g/ha, scale 0 to 10, 0 is no effect, 10 is complete control
[20] = Preemergence, Rate 62 g/ha, scale of 0 to 10 where 0 is no effect and 10 is complete control
[21] = Preemergence, Rate 125 g/ha, scale 0 to 10, 0 is no effect, 10 is complete control
[22] = Preemergence, Rate 500 g/ha, scale of 0 to 10 where 0 is no effect and 10 is complete control
[23] = Postemergence, Rate 250 g/ha, scale 0 to 10
[24] = Preemergence, Rate 250 g/ha, scale 0 to 10, 0 is no effect, 10 is complete control
[25] = Preemergence, Rate 500 g/ha, scale 0 to 10, 0 is no effect, 10 is complete control

CCOCn1c(=O)on(C(=O)N(c2ccc(F)cc2F)C(C)C)c1=O [Compound 504]
Sugarbeets plant response rating [1, 17]: 5 | Sugarbeets plant response rating [1, 18]: 7 | Plant response rating, Sugarbeets [1, 19]: 9 | Plant response rating, Sugarbeets [1, 20]: 4 | Sugarbeets plant response rating [1, 21]: 6 | Sugarbeets plant response rating [1, 22]: 9 | Crabgrass plant response rating [2, 17]: 8 | Crabgrass plant response rating [2, 18]: 8 | Crabgrass plant response rating [2, 23]: 9 | Plant response rating, Crabgrass [2, 19]: 10 | Plant response rating, Crabgrass [2, 20]: 6 | Crabgrass plant response rating [2, 21]: 6 | Crabgrass plant response rating [2, 22]: 10 | B. signalgrass plant response rating [3, 17]: 0 | B. signalgrass plant response rating [3, 18]: 3 | B. signalgrass plant response rating ([3]; Postemergence, Rate 250 g/ha, scale 0 to 10, 0 no effect, 10 complete control): 8 | Plant response rating, B. signalgrass [3, 19]: 9 | Plant response rating, B. signalgrass [3, 20]: 7 | B. signalgrass plant response rating [3, 21]: 10 | B. signalgrass plant response rating [3, 24]: 10 | B. signalgrass plant response rating [3, 25]: 10 | Corn plant response rating [4, 17]: 0 | Corn plant response rating [4, 18]: 2 | Corn plant response rating [4, 23]: 2 | Plant response rating, Corn [4, 19]: 6 | Plant response rating, Corn [4, 20]: 0 | Corn plant response rating [4, 21]: 5 | Corn plant response rating [4, 22]: 6 | Nutsedge plant response rating [5, 17]: 0 | Nutsedge plant response rating [5, 18]: 0 | Plant response rating, Nutsedge [5, 19]: 3 | Plant response rating, Nutsedge [5, 20]: 2 | Nutsedge plant response rating [5, 21]: 0 | Nutsedge plant response rating [5, 22]: 8 | Wild oats plant response rating [6, 17]: 0 | Wild oats plant response rating [6, 18]: 6 | Plant response rating, Wild oats [6, 19]: 7 | Plant response rating, Wild oats [6, 20]: 6 | Wild oats plant response rating [6, 21]: 8 | Wild oats plant response rating [6, 22]: 10 | Cocklebur plant response rating [7, 17]: 2 | Cocklebur plant response rating [7, 18]: 3 | Cocklebur plant response rating [7, 23]: 6 | Plant response rating, Cocklebur [7, 19]: 6 | Plant response rating, Cocklebur [7, 20]: 0 | Cocklebur plant response rating [7, 21]: 0 | Cocklebur plant response rating [7, 24]: 0 | Cocklebur plant response rating [7, 22]: 0 | Rape plant response rating [8, 17]: 1 | Rape plant response rating [8, 18]: 4 | Plant response rating, Rape [8, 19]: 8 | Plant response rating, Rape [8, 20]: 5 | Rape plant response rating [8, 21]: 10 | Rape plant response rating [8, 22]: 10 | Soybean plant response rating [9, 17]: 3 | Soybean plant response rating [9, 18]: 6 | Plant response rating, Soybean [9, 19]: 7 | Plant response rating, Soybean [9, 20]: 0 | Soybean plant response rating [9, 21]: 0 | Soybean plant response rating [9, 22]: 5 | Giant foxtail plant response rating [10, 17]: 8 | Giant foxtail plant response rating [10, 18]: 9 | Plant response rating, Giant foxtail [10, 19]: 9 | Plant response rating, Giant foxtail [10, 20]: 9 | Giant foxtail plant response rating [10, 21]: 9 | Giant foxtail plant response rating [10, 22]: 10 | Redroot pigweed plant response rating [11, 17]: 7 | Redroot pigweed plant response rating [11, 18]: 8 | Plant response rating, Redroot pigweed [11, 19]: 9 | Plant response rating, Redroot pigweed [11, 20]: 10 | Redroot pigweed plant response rating [11, 21]: 10 | Redroot pigweed plant response rating [11, 22]: 10 | Bedstraw plant response rating [12, 18]: 8 | Plant response rating, Bedstraw [12, 19]: 9 | Plant response rating, Bedstraw [12, 20]: 2 | Bedstraw plant response rating [12, 21]: 5 | Bedstraw plant response rating [12, 24]: 8 | Bedstraw plant response rating [12, 25]: 8 | Blackgrass plant response rating [13, 17]: 6 | Blackgrass plant response rating [13, 18]: 7 | Blackgrass plant response rating [13, 23]: 7 | Plant response rating, Blackgrass [13, 19]: 8 | Plant response rating, Blackgrass [13, 20]: 6 | Blackgrass plant response rating [13, 21]: 8 | Blackgrass plant response rating [13, 24]: 10 | Blackgrass plant response rating [13, 22]: 10 | Wheat plant response rating [14, 17]: 0 | Wheat plant response rating [14, 18]: 3 | Plant response rating, Wheat [14, 19]: 6 | Plant response rating, Wheat [14, 20]: 2 | Wheat plant response rating [14, 21]: 6 | Wheat plant response rating [14, 22]: 8 | Morningglory plant response rating [15, 17]: 4 | Morningglory plant response rating [15, 18]: 4 | Plant response rating, Morningglory [15, 19]: 6 | Plant response rating, Morningglory [15, 20]: 0 | Morningglory plant response rating [15, 21]: 0 | Morningglory plant response rating [15, 22]: 4 | Velvetleaf plant response rating [16, 17]: 1 | Velvetleaf plant response rating [16, 18]: 4 | Plant response rating, Velvetleaf [16, 19]: 7 | Plant response rating, Velvetleaf [16, 20]: 1 | Velvetleaf plant response rating [16, 21]: 5 | Velvetleaf plant response rating [16, 22]: 10
